# Reference: ChEMBL document CHEMBL1201862, “PubChem BioAssay data set” (2004)
#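 Briefly, cells in 96-well plates were exposed to five compound concentrations for 48 h, and endpoints were estimated by linear interpolation. GI50 = concentration required for 50% inhibition of growth.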 Activity calls are given as the source filed them. Rule as the data show it: active = GI50 up to about 1.1 µM and inactive = higher.
# Columns and labels:
# Assay in all cases: growth of human tumour cells (NCI), 48 h
# [1] = system: 786-0
# [2] = system: CAKI-1
# [3] = system: CCRF-CEM
# [4] = system: EKVX
# [5] = system: HOP-62
# [6] = system: HOP-92
# [7] = system: Hs-578T
# [8] = system: LOX IMVI
# [9] = system: M14
# [10] = system: SK-MEL-2
# [11] = system: SK-MEL-5
# [12] = system: SK-OV-3
# [13] = system: SN12C
# [14] = system: SNB-19
# [15] = system: SW-620
# [16] = system: TK-10
# [17] = system: U-251
# [18] = system: UACC-257
# [19] = system: UACC-62
# [20] = system: HCC 2998
Compound,GI50 [1],GI50 [2],GI50 [3],GI50 [4],GI50 [5],GI50 [6],GI50 [7],GI50 [8],GI50 [9],GI50 [10],GI50 [11],GI50 [12],GI50 [13],GI50 [14],GI50 [15],GI50 [16],GI50 [17],GI50 [18],GI50 [19],GI50 [20]
FC(F)(F)c1cc(N(C2c3ccccc3C=Cc3ccccc32)P(Cl)Cl)cc(C(F)(F)F)c1,16.8 µM (inactive),21.9 µM (inactive),24 µM (inactive),17.1 µM (inactive),17.6 µM (inactive),15.6 µM (inactive),25.5 µM (inactive),18.5 µM (inactive),22.8 µM (inactive),18.7 µM (inactive),18.1 µM (inactive),25.4 µM (inactive),16.9 µM (inactive),21.8 µM (inactive),25.4 µM (inactive),33 µM (inactive),17.8 µM (inactive),18.3 µM (inactive),–,–
COc1cc(C2SCC(=O)N2NC(=O)c2ccc(NC(C)=O)cc2OC)ccc1O (centres undefined),31.3 µM (inactive),> 100 µM (inactive),> 100 µM (inactive),5.74 µM (inactive),4.12 µM (inactive),29.4 µM (inactive),> 100 µM (inactive),> 100 µM (inactive),> 100 µM (inactive),22.2 µM (inactive),–,6.27 µM (inactive),36.5 µM (inactive),30.3 µM (inactive),> 100 µM (inactive),–,–,–,> 100 µM (inactive),–
CC(=O)N(C(C)=O)n1c(Cc2ccc(Cl)cc2)nn(C(C)=O)c1=O,> 100 µM (inactive),–,> 100 µM (inactive),> 100 µM (inactive),> 100 µM (inactive),–,> 100 µM (inactive),> 100 µM (inactive),> 100 µM (inactive),> 100 µM (inactive),> 100 µM (inactive),> 100 µM (inactive),> 100 µM (inactive),> 100 µM (inactive),> 100 µM (inactive),> 100 µM (inactive),> 100 µM (inactive),–,> 100 µM (inactive),> 100 µM (inactive)
CCON=C1C(C)(C)C(C)(C)C(C)(C)C1(C)C,> 100 µM (inactive),> 100 µM (inactive),> 100 µM (inactive),> 100 µM (inactive),> 100 µM (inactive),> 100 µM (inactive),> 100 µM (inactive),> 100 µM (inactive),> 100 µM (inactive),> 100 µM (inactive),> 100 µM (inactive),> 100 µM (inactive),> 100 µM (inactive),> 100 µM (inactive),> 100 µM (inactive),> 100 µM (inactive),> 100 µM (inactive),> 100 µM (inactive),> 100 µM (inactive),–
NNC(=O)CC(=O)Nc1ccccc1Cl,> 100 µM (inactive),> 100 µM (inactive),> 100 µM (inactive),> 100 µM (inactive),> 100 µM (inactive),> 100 µM (inactive),> 100 µM (inactive),> 100 µM (inactive),–,> 100 µM (inactive),> 100 µM (inactive),> 100 µM (inactive),> 100 µM (inactive),> 100 µM (inactive),> 100 µM (inactive),> 100 µM (inactive),> 100 µM (inactive),> 100 µM (inactive),> 100 µM (inactive),–
CN(Cc1cnc2nc(N)nc(N)c2n1)c1ccc(C(=O)NCCS(=O)(=O)O)cc1,> 100 µM (inactive),> 100 µM (inactive),–,> 100 µM (inactive),> 100 µM (inactive),–,> 100 µM (inactive),> 100 µM (inactive),> 100 µM (inactive),> 100 µM (inactive),> 100 µM (inactive),> 100 µM (inactive),> 100 µM (inactive),> 100 µM (inactive),> 100 µM (inactive),> 100 µM (inactive),> 100 µM (inactive),> 100 µM (inactive),> 100 µM (inactive),> 100 µM (inactive)
CC(=O)c1csc2c1C(=O)c1scc(C(C)=O)c1C2=O,2.05 µM (inactive),2.22 µM (inactive),0.5 µM (active),1.89 µM (inactive),1.8 µM (inactive),2 µM (inactive),2.74 µM (inactive),1.41 µM (inactive),1.63 µM (inactive),1.89 µM (inactive),1.44 µM (inactive),2.22 µM (inactive),1.7 µM (inactive),1.8 µM (inactive),1.94 µM (inactive),2.54 µM (inactive),1.43 µM (inactive),0.942 µM (active),1.98 µM (inactive),–
CN(C)Cc1cc(C(F)(F)F)ccc1C(O)(c1ccccc1)c1ccccc1,14.2 µM (inactive),12.8 µM (inactive),6.92 µM (inactive),15.4 µM (inactive),16.3 µM (inactive),13.6 µM (inactive),26.9 µM (inactive),15.8 µM (inactive),12.4 µM (inactive),18.3 µM (inactive),14.1 µM (inactive),17.4 µM (inactive),15.4 µM (inactive),16.7 µM (inactive),17.3 µM (inactive),17.2 µM (inactive),11.8 µM (inactive),11.6 µM (inactive),13.2 µM (inactive),–
Nc1nc2c(c(=O)[nH]1)N=C(COP(=O)(O)OP(=O)(O)O)CN2,> 100 µM (inactive),> 100 µM (inactive),> 100 µM (inactive),> 100 µM (inactive),> 100 µM (inactive),–,> 100 µM (inactive),> 100 µM (inactive),> 100 µM (inactive),> 100 µM (inactive),> 100 µM (inactive),> 100 µM (inactive),> 100 µM (inactive),> 100 µM (inactive),> 100 µM (inactive),> 100 µM (inactive),> 100 µM (inactive),> 100 µM (inactive),> 100 µM (inactive),> 100 µM (inactive)
O=C(NCc1cccc(C(F)(F)F)c1)c1cc2sccc2nc1C(F)(F)F,25.5 µM (inactive),62.1 µM (inactive),> 100 µM (inactive),> 100 µM (inactive),33.8 µM (inactive),50.9 µM (inactive),26.9 µM (inactive),–,> 100 µM (inactive),> 100 µM (inactive),93.1 µM (inactive),81.5 µM (inactive),98.9 µM (inactive),34.6 µM (inactive),> 100 µM (inactive),64 µM (inactive),27.4 µM (inactive),> 100 µM (inactive),> 100 µM (inactive),–
COc1ccccc1CNC1=Nc2ccncc2S(=O)(=O)N1c1ccccc1,> 100 µM (inactive),63.8 µM (inactive),95.5 µM (inactive),> 100 µM (inactive),–,39.7 µM (inactive),74.8 µM (inactive),> 100 µM (inactive),> 100 µM (inactive),–,34 µM (inactive),> 100 µM (inactive),> 100 µM (inactive),> 100 µM (inactive),> 100 µM (inactive),> 100 µM (inactive),52.1 µM (inactive),82.8 µM (inactive),35.9 µM (inactive),> 100 µM (inactive)
COC(=O)C(CCCCN)NC(=O)C(CCCCN)NC(=O)C(CCCCN)NC(C)=O.Cc1ccc(C(=O)Nc2ccc(S(=O)(=O)O)c3cc(S(=O)(=O)O)cc(S(=O)(=O)O)c23)cc1NC(=O)c1cccc(NC(=O)Nc2cccc(C(=O)Nc3cc(C(=O)Nc4ccc(S(=O)(=O)O)c5cc(S(=O)(=O)O)cc(S(=O)(=O)O)c45)ccc3C)c2)c1,> 50 µM (inactive),> 50 µM (inactive),> 50 µM (inactive),–,–,> 50 µM (inactive),> 50 µM (inactive),> 50 µM (inactive),> 50 µM (inactive),> 50 µM (inactive),> 50 µM (inactive),> 50 µM (inactive),> 50 µM (inactive),> 50 µM (inactive),> 50 µM (inactive),–,> 50 µM (inactive),> 50 µM (inactive),> 50 µM (inactive),> 50 µM (inactive)
CC(C)(Cl)C(Br)CC/C(=C/CBr)CBr.CC(C)(Cl)C(Br)CC/C(=C\CBr)CBr (centres undefined),1.59 µM (inactive),–,0.959 µM (active),24.8 µM (inactive),5.93 µM (inactive),2.03 µM (inactive),4.69 µM (inactive),–,2 µM (inactive),4.98 µM (inactive),2.87 µM (inactive),15 µM (inactive),2.49 µM (inactive),4.12 µM (inactive),2.3 µM (inactive),4.1 µM (inactive),2 µM (inactive),4.37 µM (inactive),5.01 µM (inactive),5.82 µM (inactive)
CCOC(=O)CC[C@H](NC(=O)c1ccc(CNc2nc3cc(C(F)(F)F)ccc3nc2C(=O)OCC)cc1)C(=O)OCC,7.19 µM (inactive),14.3 µM (inactive),> 100 µM (inactive),17.3 µM (inactive),9.25 µM (inactive),13 µM (inactive),7.16 µM (inactive),> 100 µM (inactive),> 43.7 µM (inactive),> 48.2 µM (inactive),27.9 µM (inactive),31.4 µM (inactive),> 89.9 µM (inactive),9.14 µM (inactive),> 61.2 µM (inactive),15.4 µM (inactive),5.87 µM (inactive),42.8 µM (inactive),16.1 µM (inactive),–
CC(C)C1=CC23CCC4C(C)(C(=O)O)CCCC4(C)C2CC1C(C(=O)O)C3C(=O)O (centres undefined),> 100 µM (inactive),> 100 µM (inactive),> 100 µM (inactive),> 100 µM (inactive),> 100 µM (inactive),> 100 µM (inactive),> 100 µM (inactive),> 100 µM (inactive),> 100 µM (inactive),> 100 µM (inactive),> 100 µM (inactive),–,> 100 µM (inactive),> 100 µM (inactive),> 100 µM (inactive),> 100 µM (inactive),> 100 µM (inactive),–,> 100 µM (inactive),–
